Laboratory results taken from US20260183393A1, “IMMUNOSUPPRESSANT-RESISTANT MODIFIED ALLOGENEIC MODIFIED IMMUNE CELLS AND METHODS FOR USE THEREOF” (Beam Therapeutics Inc., priority 2023, published 2026).

Legend:
NK cells = test: NK cell-mediated lysis of HLA class-I negative T cells with immunosuppressants; type: cell-based, human; conditions: 10 μg/mL; 4:1 effector-to-target ratio; 48 hours of co-culture
Experimental: The rightmost plots represent the ratio of HLA class-I negative (target cells) and positive T cells in the absence of any NK cells (effector cells) (i.e., a culture with an effector-to-target cell ratio (E:T) of 0:1 because the culture contained no effector cells and only the target cells). Primary human NK cells were activated in vitro with IL-2 and IL-15 cytokines for 72 hours. The activated NK cells were then cultured for 24 hours in the presence of rapamycin (10 μg/mL), tacrolimus (10 μg/mL), or a dimethylsulfoxide (DMSO) control. After the 24 hours, the NK cells were then co-cultured at a 4:1 effector-to-target ratio with an equal mixture of unedited HLA class-I positive (off-target cells) or beta-2-microglobulin (B2M) knock-out (HLA class-I deficient) T cells (target cells) in the presence or absence if the immunosuppressant rapamycin or tacrolimus. T cells co-cultured in the absence of NK cells (0:1 E:T ratio) were used as control. Following 48 hours of co-culture, the frequency of HLA class-I negative and positive T cells was assessed using flow cytometry by immunostaining for pan HLA class-I (ABC). The numbers within each plot indicate the percent of total cells counted falling within the indicated region, where the left regions correspond to HLA class-I negative cells and the right regions correspond to HLA class-I positive cells. […]

[1] = tested on: T cell-driven rejection of allogeneic HLA-I^+ CAR-T cells; test: HIS mouse-driven allorejection model, 4CAR-T cell persistence; type: in vivo, human immune system (HIS) mice; conditions: for rejection of peripheral allogeneic HLA^+ CAR-T cells: RPM 1 mg kg-1 or TAC 10 mg kg-1 daily intraperitoneal for 2 weeks, 1- and 2-weeks post-treatment initiation
Experimental: Female (aged 6-8 weeks) NOD.Cg-Prkdc^scidIL2rg^tm1Wjl/SzJ (NSG) mice (Jackson Laboratory) were maintained in a pathogen-free facility. Briefly, to generate BLT humanized mice, NSG mice were anesthetized and whole-body irradiated (2 Gy), and then implanted with 1 mm^3 fragments of human fetal liver and thymus tissue beneath the murine kidney capsule. Following, 1×10^5 autologous fetal liver-derived CD34^+ hematopoietic stem cells (HSCs) were intravenously injected within 6 hours of transplantation. Beam Therapeutics commercially obtained female NOD-Prkdc^em26Ca52 IL2rg^em26CD22/NjuCrl (NCG) CD34^+ humanized (huNCG) mice from Charles River and female (aged 6-8 weeks) NSG-Tg(IL15)1Sz/SzJ (NSG-IL15tg) mice from Jackson Laboratory. Mice were maintained in a pathogen-free facility at CRADL. Briefly, huCD34-NCG mice were generated from female (aged 4-6 weeks) NCG mice that were myeloablated and then intravenously infused with human umbilical cord blood-derived CD34^+ stem cells from a qualified source. Humanized NK (huNK) mice were generated by supplementing the water of NSG-IL-15tg with Baytril (Bayer) for 1 week followed by whole-body irradiation (2 Gy). 5×10^6 primary human CD56^+ NK cells were then intravenously injected 24 hours later and permitted to engraft. At both facilities, mice were housed in microisolator cages and fed autoclaved food and water. Animal rooms were maintained at 72±2° F., 30-70% relative humidity and were on a 12:12 h light/dark cycle. Human reconstitution was assessed from 12-17 weeks post-transplant in BLT and huNCG mice, and 2-3 weeks post-transplant in huNK mice. […]
For the studies described in FIGS. 16A to 16J, BLT mice were used Cohort #2 (n=12) and Cohort #5 (n=13), and huNCG mice were used in Cohort #1 (n=10), Cohort #3 (n=12) and Cohort #4 (n=10). […] Persistence of 4CAR-T cells was monitored at 1-day post-T cell infusion and weekly thereafter via blood draws from the retro-orbital sinus or submandibular vein. […]

| SMILES | NK cell-mediated lysis of HLA class-I negative T cells (NK cells) | rejection of peripheral allogeneic HLA^+ CAR-T cells [1] | cumulative allogeneic HLA^+ CAR-T cell persistence ([1]; during the treatment window and post-treatment withdrawal, AUC) |
| --- | --- | --- | --- |
| C=CC[C@@H]1/C=C(\C)C[C@H](C)C[C@H](OC)[C@H]2O[C@@](O)(C(=O)C(=O)N3CCCC[C@H]3C(=O)O[C@H](/C(C)=C/[C@@H]3CC[C@@H](O)[C@H](OC)C3)[C@H](C)[C@@H](O)CC1=O)[C@H](C)C[C@@H]2OC [tacrolimus, Tacrolimus] | attenuated | significantly mitigated rejection | improved cumulative allogeneic HLA^+ CAR-T cell persistence |
| CO[C@H]1C[C@@H]2CC[C@@H](C)[C@@](O)(O2)C(=O)C(=O)N2CCCC[C@H]2C(=O)O[C@H]([C@H](C)C[C@@H]2CC[C@@H](O)[C@H](OC)C2)CC(=O)[C@H](C)/C=C(\C)[C@@H](O)[C@@H](OC)C(=O)[C@H](C)C[C@H](C)/C=C/C=C/C=C/1C [rapamycin, Rapamycin] | attenuated | significantly mitigated rejection |  |
